System: T1, PsMDL2
T1 construct: gene MDL2
Assay: spectrophotometric mandelonitrile cleavage at […] nm, Lineweaver-Burk
Assay type: biochemical, Prunus sibirica
Settings: 0.1 M citrate-phosphate buffer pH 5.0, 25 °C; mandelonitrile 0.05-4.0 mM; purified recombinant enzyme

N#CC(O)c1ccccc1 (stereo not shown) [mandelonitrile] gave a Km of 220 µM.
